Reference: ChEMBL document CHEMBL5260825, “Chemical Constituents of Bryophytes: Structures and Biological Activity” (J Nat Prod, 2018)
≈ marks a conversion by molar mass, not a printed value. Where “and” joins values, the source holds several entries; their conditions need not be identical. Identical values can stand only once. Each block holds one compound with its values, some of them ahead of it.

Assays:
[1] = Toxicity in brine shrimp assessed as lethality; settings: artemia salina
Candida albicans [2] = experiment: Antifungal activity against Candida albicans assessed as inhibition of fungal growth by MTT method; assay type: functional
[3] = tested on: Panel NCI-60 (60 carcinoma cell lines); experiment: Antiproliferative activity against human Panel NCI-60 (60 carcinoma cell lines) assessed as cell growth inhibition; assay type: functional
RAW264.7 [4] = experiment: Inhibition of LPS-induced NO production in mouse RAW264.7 cells; assay type: functional, cell-based
[5] = molecular target: T1, Polyunsaturated fatty acid 5-lipoxygenase (Homo sapiens) (UniProt P09917); experiment: Inhibition of ALOX5 (unknown origin) at 0.000001 M relative to control; settings: dose 1 µM
T1 sequence (whole entry): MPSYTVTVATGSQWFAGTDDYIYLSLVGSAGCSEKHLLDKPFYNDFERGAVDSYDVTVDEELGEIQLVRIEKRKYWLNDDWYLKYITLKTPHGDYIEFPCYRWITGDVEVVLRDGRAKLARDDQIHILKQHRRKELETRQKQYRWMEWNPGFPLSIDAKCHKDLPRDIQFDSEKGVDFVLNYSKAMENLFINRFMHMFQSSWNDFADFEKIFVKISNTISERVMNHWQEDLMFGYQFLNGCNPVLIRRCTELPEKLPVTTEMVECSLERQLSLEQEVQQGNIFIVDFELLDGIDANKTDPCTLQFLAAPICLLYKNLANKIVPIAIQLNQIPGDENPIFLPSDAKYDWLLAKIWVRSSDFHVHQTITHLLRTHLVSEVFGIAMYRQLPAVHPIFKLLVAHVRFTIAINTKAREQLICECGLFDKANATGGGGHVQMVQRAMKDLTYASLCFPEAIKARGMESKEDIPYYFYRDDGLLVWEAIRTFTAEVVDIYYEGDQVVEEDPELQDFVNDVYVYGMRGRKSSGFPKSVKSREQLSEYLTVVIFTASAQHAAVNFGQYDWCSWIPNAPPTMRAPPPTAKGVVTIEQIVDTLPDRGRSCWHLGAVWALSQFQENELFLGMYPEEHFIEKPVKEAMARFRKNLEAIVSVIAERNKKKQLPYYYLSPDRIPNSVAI

[6] = tested on: Trypanosoma brucei brucei; experiment: […] activity against Trypanosoma brucei brucei GUTat 3.1 assessed as inhibition of parasite growth measured after 72 hrs by alamar blue assay; assay type: functional, organism-based; settings: GUTat 3.1, time 72 hrs, read-out: ED50 (the source's name)
Cladosporium cucumerinum = experiment: Antifungal activity against Cladosporium cucumerinum assessed as inhibition of microbial growth by bioautographic TLC method; assay type: functional
RAW264.7 [7] = experiment: Inhibition of LPS-induced NO production in mouse RAW264.7 cells incubated for 24 hrs by Griess reagent based assay; assay type: functional, cell-based; settings: RAW264.7, 24 h
Candida albicans [8] = experiment: Antifungal activity against Candida albicans assessed as inhibition of fungal growth by MTT assay; assay type: functional
[9] = tested on: Trichophyton mentagrophytes; experiment: Antifungal activity against Trichophyton mentagrophytes assessed as inhibition of microbial growth; assay type: functional
[10] = Antioxidant activity assessed as DPPH radical scavenging activity; assay type: functional
Bacillus subtilis = experiment: Antibacterial activity against Bacillus subtilis assessed as inhibition of bacterial growth; assay type: functional
HL-60 = experiment: Antiproliferative activity against human HL-60 cells assessed as cell growth inhibition; assay type: functional, cell-based
[11] = molecular target: Procathepsin L (Homo sapiens) (UniProt P07711); experiment: Inhibition of Cathepsin L (unknown origin) at 0.00001 M relative to control; settings: dose 10 µM
Sequence of Procathepsin L (Homo sapiens) (P07711 114-333 limits assumed): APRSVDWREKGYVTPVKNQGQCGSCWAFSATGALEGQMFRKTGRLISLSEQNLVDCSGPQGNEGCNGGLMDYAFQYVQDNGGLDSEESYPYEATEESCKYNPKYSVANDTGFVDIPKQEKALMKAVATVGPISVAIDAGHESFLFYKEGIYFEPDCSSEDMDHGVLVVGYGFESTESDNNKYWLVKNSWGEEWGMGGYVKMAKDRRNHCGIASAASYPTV

[12] = molecular target: Cathepsin B (Homo sapiens) (UniProt P07858); experiment: Inhibition of Cathepsin B (unknown origin) at 0.00001 M relative to control; settings: dose 10 µM
Staphylococcus aureus = experiment: Antibacterial activity against Staphylococcus aureus assessed as inhibition of bacterial growth by agar diffusion method; assay type: functional
P388 = experiment: Antiproliferative activity against mouse P388 cells assessed as cell growth inhibition; assay type: functional, cell-based
HT-29 = experiment: Antiproliferative activity against human HT-29 cells assessed as cell growth inhibition; assay type: functional, cell-based; settings: read-out: ED50 (the source's name)
RPMI-7951 = experiment: Antiproliferative activity against human RPMI-7951 cells assessed as cell growth inhibition; assay type: functional; settings: read-out: ED50 (the source's name)
U-251 = experiment: Antiproliferative activity against human U-251MG cells assessed as cell growth inhibition; assay type: functional; settings: read-out: ED50 (the source's name)
KB = experiment: Antiproliferative activity against human KB cells assessed as cell growth inhibition; assay type: functional, cell-based
[13] = tested on: Trichostrongylus colubriformis; experiment: Anthelmintic activity against third stage larvae of Trichostrongylus colubriformis by microscope based analysis; assay type: functional, organism-based
[14] = tested on: Peritoneal macrophage cell; experiment: Inhibition of superoxide anion radical release in guinea pig peritoneal macrophages; assay type: functional, cell-based; settings: Cavia porcellus
DNA polymerase beta = DNA polymerase beta (Homo sapiens, UniProt P06746); experiment: Inhibition of DNA polymerase beta (unknown origin)
Cyclooxygenase = Cyclooxygenase (Homo sapiens, UniProt P35354+P23219); experiment: Inhibition of COX (unknown origin); assay type: protein assay

SMILES: Oc1ccc(CCc2c(Cl)cc(Cl)c(O)c2Cl)cc1Cl
LC50 [1]: 0.42 ppm

SMILES: C=C1C(=O)C2=C[C@H]1C[C@H](O)C(=O)[C@]1(C)CCCC(C)(C)[C@H]1C[C@H]2O
GI50 [3]: 1.5 µM

SMILES: Cc1ccc(C(=O)Nc2ccc(S(=O)(=O)O)c3cc(S(=O)(=O)O)cc(S(=O)(=O)O)c23)cc1NC(=O)c1cccc(NC(=O)Nc2cccc(C(=O)Nc3cc(C(=O)Nc4ccc(S(=O)(=O)O)c5cc(S(=O)(=O)O)cc(S(=O)(=O)O)c45)ccc3C)c2)c1 [SURAMIN]
EC50 [6]: 1.5 µg/mL (≈ 1.16 µM)

SMILES: C=C1CC[C@@H]2[C@H]1[C@H]1OC(=O)C(=C)[C@@H]1CC[C@@]2(C)OC(C)=O
MIC (Cladosporium cucumerinum): 10 µg/mL

SMILES: Cc1ccc(O)c([C@@]2(C)CCCC2(C)C)c1
IC50 (RAW264.7 [7]): 4.1 µM

SMILES: Cc1ccc([C@@]2(C)CCCC2(C)C)c(O)c1O
IC50 (RAW264.7 [7]): 4.1 µM

SMILES: CC1(C)CCC[C@]1(C)c1cc(CCc2cc(O)c(O)c([C@@]3(C)CCCC3(C)C)c2)cc(O)c1O
IC50 [10]: 2 µg/mL (≈ 4.29 µM) | IC50 (RAW264.7 [7]): 4.1 µM | MIC (Bacillus subtilis): 2 µg/mL (≈ 4.29 µM) | IC50 (HL-60): 2.5 µg/mL

SMILES: O=C(N[C@H](CO)[C@H](O)c1ccc([N+](=O)[O-])cc1)C(Cl)Cl [CHLORAMPHENICOL]
diameter of the inhibition zone (DIZ) (Staphylococcus aureus): 22 mm

SMILES: C=C1C(=O)C2=C[C@H]1CCC(=O)[C@]1(C)CCCC(C)(C)[C@H]1C[C@H]2O
GI50 (P388): 0.1 µg/mL and 300 nM | IC50 (P388): 0.06 µg/mL (≈ 0.19 µM) | GI50 [3]: 1.2 µM

SMILES: Cc1cc([C@@]2(C)CCCC2(C)C)ccc1O
IC50 (RAW264.7 [7]): 4.1 µM

SMILES: COc1ccc(CCc2c(Cl)ccc(O)c2Cl)cc1
LC50 [1]: 0.42 ppm

SMILES: NCCCC(N)(C(=O)O)C(F)F (centres undefined) [EFLORNITHINE]
EC50 [6]: 2.27 µg/mL (≈ 12.5 µM)

SMILES: CC1(C)CCC[C@]2(C)[C@@H](C=O)C(C=O)=CC[C@@H]12 [POLYGODIAL]
IC50 [13]: 70 µg/mL (≈ 299 µM)

SMILES: COC(=O)[C@@]12Cc3occc3C(=O)[C@]1(C)CC[C@H]2C [NORPINGUISONE METHYL ESTER]
IC50 [14]: 35 µg/mL (≈ 133 µM) | IC50 (RAW264.7 [4]): 45.5 µM

SMILES: NC[C@H]1O[C@H](O[C@H]2[C@H](O)[C@@H](O[C@H]3O[C@H](CO)[C@@H](O)[C@H](N)[C@H]3O)[C@H](N)C[C@@H]2N)[C@H](O)[C@@H](O)[C@@H]1O [KANAMYCIN]
diameter of the inhibition zone (DIZ) (Staphylococcus aureus): 23 mm

Second part, led by results:

MIC (Candida albicans [2]): 0.6 µg/mL (≈ 3.06 µM)
SMILES: COC(=O)c1c(C)cc(O)c(C)c1O [ATRARIC ACID]

IC50 (RAW264.7 [4]): 4.5 µM | inhibition [5]: 4%
SMILES: CC1=CCc2c(O)cc(CCc3ccccc3)cc2OC1

inhibition [5]: 4%
SMILES: CC1=CCc2c(O)cc(CCc3ccc(O)cc3)cc2OC1

MIC [9]: 0.5 µg/mL
SMILES: Oc1ccc2cc1Oc1ccc(cc1)CCc1ccc(c(O)c1O)Oc1cccc(c1)CC2
MID (Candida albicans [8]): 0.2 µg/mL

inhibition [11]: 13.4% | inhibition [12]: 24.7%
SMILES: C=C1C(=O)O[C@@H]2[C@H]3C(C)=C[C@H]4OC(=O)C(=CC[C@@H]12)[C@@H]34

EC50 (HT-29): 1 µg/mL (≈ 2.5 µM) | EC50 (U-251): 2 µg/mL (≈ 4.99 µM)
SMILES: COc1cc(OC)c2c3c1C(=O)C[C@@H]1c4ccccc4O[C@@H](c4cccc(O)c4-2)[C@H]31
EC50 (RPMI-7951): 1 µg/mL (≈ 2.5 µM)

IC50 (KB): 0.96 µM | IC50 (HL-60): 0.92 µM
SMILES: COc1ccc(C[C@@H]2OC(=O)c3c(OC)cc(OC)cc32)cc1

inhibition [5]: 4%
SMILES: CC(C)=CCc1c(O)cc(CCc2ccccc2)cc1O

IC50 (DNA polymerase beta): 14.4 µM | IC50 (Cyclooxygenase): 45.2 µM
SMILES: COc1cc(CCc2cccc(Oc3c(O)cccc3CCc3ccc(O)cc3)c2)cc(O)c1O

inhibition [5]: 4% | IC50 (KB): 7.6 µM | IC50 (Cyclooxygenase): 58 µM
SMILES: COC1Cc2cccc(c2)Oc2c(O)cccc2CCc2ccc(cc2)Oc2cc1cc(O)c2O (centres undefined) [MARCHANTIN E]
MID (Candida albicans [8]): 2.5 µg/mL

IC50 (RAW264.7 [4]): 4.5 µM
SMILES: CC(C)=CCC[C@@]1(C)C=Cc2c(CCc3ccccc3)cc(O)cc2O1

EC50 (U-251): 2 µg/mL (≈ 5.84 µM)
SMILES: O=C(/C=C/c1ccccc1)c1cc(O)cc2c1CC(c1ccccc1)O2 (centres undefined) [PALLIDISETIN A]
EC50 (RPMI-7951): 1 µg/mL (≈ 2.92 µM)
